From patent US20080139664A1, “ANTI-GLYCATION AGENTS FOR PREVENTING AGE-, DIABETES-, AND SMOKING-RELATED COMPLICATIONS” (NATIONAL RESEARCH COUNCIL OF CANADA, priority 2001, published 2008)
Counter-ions that a name gives are not always drawn. Like-named read-outs stand apart in the source and are kept apart here. Values belong to the compound of their own block, whether it stands above or below them.

What was measured:
[1] = system: bovine serum albumin (BSA); assay: Maillard fluorescence-based assay of AGEs formation, IC50 determination (BSA + D-ribose); settings: inhibition of Maillard fluorescence development; 0.075 mM BSA, 50 mM D-ribose, 37° C., 5 days
Method: (§1) During the glycation reaction between proteins and reducing sugars, a specific fluorescence with excitation and emission wavelength of 370 nm and 440 nm, respectively, is observed. […] The assay was based on the progressive development of the characteristic Maillard fluorescence (370 nm Ex and 440 nm Em) during the progress of the glycation reaction.
(§2) The final assay volume was 200 μl and each assay well contained 0.075 mM BSA, and 50 mM D-ribose. Compounds were assayed at 3 different concentration levels (0.003, 0.03, and 0.3 mg/mL) to determine the effect of concentration on inhibition. Samples were incubated for 5 days.
(§3) The Maillard fluorescence was directly measured from the reaction solution, except for the anti-glycants that quenched the Maillard fluorescence, which were analyzed by the earlier-described HPLC method.
(§4) Solutions were incubated in microtitre plates (96 wells) at 37° C. for 5 days in a closed system.
(§5) After one hour incubation at 37° C., fluorescence readings were taken.
(§6) The IC50 values of the compounds that quenched the fluorescence of the glycated BSA were analyzed by on-line monitoring of the fluorescence of the glycated BSA separated from the fluorescence quenching assay compound by RP-HPLC. The elution profile was monitored by UV-diode array and by fluorescence (λex=370 nm, λem=440 nm). […] The incubation conditions were the same as above.

[2] = system: bovine serum albumin (BSA)
Method: as §1, §2, §3, §4, §5, §6

lysozyme = assay: ESI-MS of lysozyme glycoforms after incubation with D-ribose; settings: 37° C., 5 days; for Peak area as % of total area of all glycoforms, 14,569: lysozyme + 2D-ribose − 2H2O (14,569 Da); for Peak area as % of total area of all glycoforms, 14,551: lysozyme + 2D-ribose − 3H2O (14,551 Da); for Peak area as % of total area of all glycoforms, 14,533: lysozyme + 2D-ribose − 5H2O (14,533 Da); for Peak area as % of total area of all glycoforms, 14,515: lysozyme + 2D-ribose − 6H2O (14,515 Da); for Peak area as % of total area of all glycoforms, 14,419: lysozyme + D-ribose − 2H2O (14,419 Da); for Peak area as % of total area of all glycoforms, 14,401: lysozyme + D-ribose − 3H2O (14,401 Da); for Peak area as % of total area of all glycoforms, 14,437: lysozyme + D-ribose − H2O (14,437 Da); for Peak area as % of total area of all glycoforms, 14,496: lysozyme + D-ribose − H2O with one carboxymethylated Lys residue (14,496 Da); for Peak area as % of total area of all glycoforms, 14,364: lysozyme with one carboxymethylated Lys residue (14,364 Da); for Peak area as % of total area of all glycoforms, 14,305: unmodified lysozyme (14,305 Da);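 for all read-outs here: lysozyme incubated with D-ribose, with or without anti-glycation agents, then separated by reversed-phase HPLC and analysed by electrospray mass spectrometry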
Method: The effect of anti-glycation agents on the accumulation of glycated forms (glycoforms) of protein was evaluated by using electrospray mass spectrometry (ESI-MS). As the molecular mass of BSA was too large to monitor the small mass changes of its glycoforms, lysozyme was incubated with D-ribose and anti-glycants. Lysozyme and its glycoforms were isolated by RP-HPLC and analyzed by mass spectrometry.
Samples of lysozyme (0.756 mM; 4.54 mM of Lys residues) and D-ribose (50 mM) were incubated in the presence and absence of the selected anti-glycation agents at 37° C. for 5 days and subjected to electrospray mass spectrometry (ESI-MS) in order to characterize the protein intermediates as well as carboxymethylated lysozyme. Prior to MS measurements, the proteins were isolated by reversed phase-HPLC and were semi-dried by freeze drying.

IC50 [1]: 100 µM
SMILES: O=C1c2c(O)cc(O)cc2O[C@H](c2ccc(O)c(O)c2)[C@H]1O [Taxifolin]

IC50 [1]: 78 µM
SMILES: COC(CNC(C)C)c1ccc(O)c(O)c1 (stereo not drawn) [3,4-Dihydroxy-1-[α-isopropylamino-β-methoxy)ethyl]benzene]

IC50 [1]: 100 µM
SMILES: O=C1CN(/N=C/c2ccc(-c3ccc([N+](=O)[O-])cc3)o2)C(O)=N1 [Dantrolene]

IC50 [1]: 1800 µM
SMILES: O=c1c(O)c(-c2ccc(O)c(O)c2)oc2ccccc12 [3,3′,4′-Trihydroxyflavone]

IC50 [1]: 510 µM
SMILES: COc1ccc(-c2cc(=O)c3c(O)cc(O)cc3o2)cc1 [Acacetin]

IC50 [2]: 220 µM
SMILES: O=C1C[C@@H](c2ccc(O)cc2)Oc2cc(O)cc(O)c21 [Naringenin]
Peak area as % of total area of all glycoforms, 14,569 (lysozyme): 4.9% | Peak area as % of total area of all glycoforms, 14,551 (lysozyme): 3.1% | Peak area as % of total area of all glycoforms, 14,533 (lysozyme): 1.8% | Peak area as % of total area of all glycoforms, 14,515 (lysozyme): 0.0% | Peak area as % of total area of all glycoforms, 14,419 (lysozyme): 7.5% | Peak area as % of total area of all glycoforms, 14,401 (lysozyme): 0.0% | Peak area as % of total area of all glycoforms, 14,437 (lysozyme): 24.4% | Peak area as % of total area of all glycoforms, 14,496 (lysozyme): 0.0% | Peak area as % of total area of all glycoforms, 14,364 (lysozyme): 0.1% | Peak area as % of total area of all glycoforms, 14,305 (lysozyme): 56.8%

IC50 [1]: 350 µM
SMILES: CC(CCc1ccccc1)NC(CO)c1ccc(O)c(O)c1 (stereo not drawn) [3,4-Dihydroxy-1-[α-(1-methyl-3-phenyl-propylamino)-β-hydroxyethyl]benzene hydrochloride]

IC50 [2]: 340 µM
SMILES: Cc1c(C(N)=O)cc([N+](=O)[O-])cc1[N+](=O)[O-] [Dinitolmide]
Peak area as % of total area of all glycoforms, 14,569 (lysozyme): 4.9% | Peak area as % of total area of all glycoforms, 14,551 (lysozyme): 3.6% | Peak area as % of total area of all glycoforms, 14,533 (lysozyme): 2.6% | Peak area as % of total area of all glycoforms, 14,515 (lysozyme): 1.3% | Peak area as % of total area of all glycoforms, 14,419 (lysozyme): 7.4% | Peak area as % of total area of all glycoforms, 14,401 (lysozyme): 0.0% | Peak area as % of total area of all glycoforms, 14,437 (lysozyme): 22.6% | Peak area as % of total area of all glycoforms, 14,496 (lysozyme): 0.0% | Peak area as % of total area of all glycoforms, 14,364 (lysozyme): 3.0% | Peak area as % of total area of all glycoforms, 14,305 (lysozyme): 51.7%

Second part, the compound before the results:

SMILES: Cc1c(C)c2c(c(C)c1O)CCC(C)(C(=O)O)O2 (centres unmarked) [Trolox C]
IC50 [1]: 470 µM

SMILES: N[C@@H](Cc1cc(I)c(O)c(I)c1)C(=O)O [3,5-Diiodo-L-tyrosine]
IC50 [1]: 1500 µM

SMILES: O=c1c(O)c(-c2ccc(O)c(O)c2)oc2cc(O)cc(O)c12 [Quercetin]
IC50 [1]: 130 µM

SMILES: COc1ccc(-c2coc3cc(O)cc(O)c3c2=O)cc1 [Biochanin A]
IC50 [1]: 290 µM

SMILES: O=c1c(O)c(-c2cc(O)c(O)c(O)c2)oc2cc(O)cc(O)c12 [Myricetin]
IC50 [2]: 54 µM | maximum percentage of the inhibition [2]: 64%) | Peak area as % of total area of all glycoforms, 14,569 (lysozyme): 0.0% | Peak area as % of total area of all glycoforms, 14,551 (lysozyme): 0.0% | Peak area as % of total area of all glycoforms, 14,533 (lysozyme): 0.0% | Peak area as % of total area of all glycoforms, 14,515 (lysozyme): 0.0% | Peak area as % of total area of all glycoforms, 14,419 (lysozyme): 1.8% | Peak area as % of total area of all glycoforms, 14,401 (lysozyme): 0.0% | Peak area as % of total area of all glycoforms, 14,437 (lysozyme): 17.7% | Peak area as % of total area of all glycoforms, 14,496 (lysozyme): 0.0% | Peak area as % of total area of all glycoforms, 14,364 (lysozyme): 1.6% | Peak area as % of total area of all glycoforms, 14,305 (lysozyme): 78.9%

SMILES: O=[N+]([O-])c1ccc(O)cc1 [p-Nitrophenol]
IC50 [1]: > 4000 µM

SMILES: O=[N+]([O-])c1cc(I)c(O)c(I)c1 [2,6-Diiodo-4-nitrophenol]
IC50 [1]: 1300 µM

SMILES: COc1ccc(O)c(C(C)(C)C)c1 [BHA]
IC50 [1]: > 4000 µM
